According to patent US11478558B2, “Prostate-specific membrane antigen targeted high-affinity agents for endoradiotherapy of prostate cancer” (The Johns Hopkins University, priority 2017, dated 2022):

Assays:
[1] = test system: PSMA(+) PC3 PIP cells; experiment: Cell uptake, cell surface binding and internalization in PSMA(+) PC3 PIP cells; format: cell-based, human
[2] = target: PSMA (Homo sapiens (Human), UniProt Q04609); experiment: PSMA binding affinity; settings: for Ki: Table 6, given as range
PSMA, sequence (Q04609 whole entry): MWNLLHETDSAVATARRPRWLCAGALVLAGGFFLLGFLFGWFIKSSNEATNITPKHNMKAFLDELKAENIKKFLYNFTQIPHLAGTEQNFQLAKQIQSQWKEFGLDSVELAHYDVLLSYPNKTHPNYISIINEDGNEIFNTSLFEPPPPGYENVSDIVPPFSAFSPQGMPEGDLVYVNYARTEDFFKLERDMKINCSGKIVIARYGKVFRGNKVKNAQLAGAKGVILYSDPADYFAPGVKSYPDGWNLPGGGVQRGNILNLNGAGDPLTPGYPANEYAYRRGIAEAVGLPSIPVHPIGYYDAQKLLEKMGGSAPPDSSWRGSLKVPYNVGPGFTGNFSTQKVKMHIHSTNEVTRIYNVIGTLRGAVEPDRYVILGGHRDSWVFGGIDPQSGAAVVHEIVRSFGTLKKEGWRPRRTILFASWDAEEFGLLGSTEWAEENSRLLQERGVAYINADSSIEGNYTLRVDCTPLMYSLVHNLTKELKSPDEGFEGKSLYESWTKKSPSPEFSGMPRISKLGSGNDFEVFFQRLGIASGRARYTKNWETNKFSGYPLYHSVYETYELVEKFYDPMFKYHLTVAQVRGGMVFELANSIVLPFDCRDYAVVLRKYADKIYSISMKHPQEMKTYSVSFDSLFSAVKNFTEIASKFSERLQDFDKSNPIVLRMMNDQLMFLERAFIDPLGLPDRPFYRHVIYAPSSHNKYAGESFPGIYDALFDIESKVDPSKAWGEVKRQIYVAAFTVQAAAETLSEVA

Ki [2] | SMILES | Specific Cell Surface Binding [1] | specific internalization [1] | fold improvement in binding affinity over L1 [2]
0.2 to 0.33 nM | O=C(O)CC[C@H](NC(=O)N[C@@H](CCCCN(Cc1ccc(I)cc1)C(=O)CCCCNC(=O)CN1CCN(CC(=O)O)CCN(CC(=O)O)CCN(CC(=O)O)CC1)C(=O)O)C(=O)O [Ligand L2, (14S,18S)-9-(4-iodobenzyl)-2,8,16-trioxo-1-(4,7,10-tris(carboxymethyl)-1,4,7,10-tetraazacyclododecan-1-yl)-3,9,15,17-tetraazaicosane-14,18,20-tricarboxylic acid] | 29.23 ± 0.80 % IA/10^6 cells | 24.96 ± 0.90 % IA/10^6 cells | 
0.35 to 0.93 nM | O=C(O)CC[C@H](NC(=O)N[C@@H](CCCCN(Cc1ccc(I)cc1)C(=O)CCCCCCC(=O)NCCCCNC(=O)c1ccc(CNC(=O)CN2CCN(CC(=O)O)CCN(CC(=O)O)CCN(CC(=O)O)CC2)cc1)C(=O)O)C(=O)O [Ligand L6, (21S,25S)-16-(4-Iodobenzyl)-1,8,15,23-tetraoxo-1-(4-((2-(4,7,10-tris(carboxymethyl)-1,4,7,10-tetraazacyclododecan-1-yl)acetamido)methyl)phenyl)-2,7,16,22,24-pentaazaheptacosane-21,25,27-tricarboxylic acid] |  |  | 
0.22 to 4.03 nM | O=C(O)CC[C@H](NC(=O)N[C@@H](CCCCN(Cc1ccc(Br)cc1)C(=O)c1ccc(CNC(=O)CN2CCN(CC(=O)O)CCN(CC(=O)O)CCN(CC(=O)O)CC2)cc1)C(=O)O)C(=O)O [Ligand L12, (((S)-5-(N-(4-Bromobenzyl)-4-((2-(4,7,10-tris(carboxymethyl)-1,4,7,10-tetraazacyclododecan-1-yl)acetamido)methyl)benzamido)-1-carboxypentyl)carbamoyl)-L-glutamic acid] |  |  | 
0.23 to 8.1 nM | O=C(O)CC[C@H](NC(=O)N[C@@H](CCCCN(Cc1ccc(Br)nc1)C(=O)CCCCNC(=O)CN1CCN(CC(=O)O)CCN(CC(=O)O)CCN(CC(=O)O)CC1)C(=O)O)C(=O)O [Ligand L13, (14S,18S)-9-((6-Bromopyridin-3-yl)methyl)-2,8,16-trioxo-1-(4,7,10-tris(carboxymethyl)-1,4,7,10-tetraazacyclododecan-1-yl)-3,9,15,17-tetraazaicosane-14,18,20-tricarboxylic acid] |  |  | 
 | O=C([O-])CN1CCN(CC(=O)[O-])CCN(CC(=O)NCCCCC(=O)N(CCCC[C@H](NC(=O)N[C@@H](CCC(=O)O)C(=O)O)C(=O)O)Cc2ccc(Br)cc2)CCN(CC(=O)[O-])CC1.[Lu+3] [Lu-L1] |  |  | 3 fold

SMILES | Ki [2] | Specific Cell Surface Binding [1] | specific internalization [1] | fold improvement in binding affinity over L1 [2]
O=C(O)CC[C@H](NC(=O)N[C@@H](CCCCN(Cc1ccc(Br)cc1)C(=O)CCCCCNC(=O)c1ccc(CNC(=O)CN2CCN(CC(=O)O)CCN(CC(=O)O)CCN(CC(=O)O)CC2)cc1)C(=O)O)C(=O)O [Ligand L3, (14S,18S)-9-(4-Bromobenzyl)-1,8,16-trioxo-1-(4-((2-(4,7,10-tris(carboxymethyl)-1,4,7,10-tetraazacyclododecan-1-yl)acetamido)methyl)phenyl)-2,9,15,17-tetraazaicosane-14,18,20-tricarboxylic acid] | 0.09 to 34 nM | 36.65 ± 0.50 % IA/10^6 cells | 22.03 ± 0.60 % IA/10^6 cells | 
O=C(O)CC[C@H](NC(=O)N[C@@H](CCCCNC(=O)CCCCNC(=S)Nc1ccc(CC2CN(CC(=O)O)CCN(CC(=O)O)CCN(CC(=O)O)CCN2CC(=O)O)cc1)C(=O)O)C(=O)O (stereo partly drawn) [Ligand L7, (13S,17S)-7,15-dioxo-1-((4-((1,4,7,10-tetrakis(carboxymethyl)-1,4,7,10-tetraazacyclododecan-2-yl)methyl)phenyl)amino)-1-thioxo-2,8,14,16-tetraazanonadecane-13,17,19-tricarboxylic acid] | 0.29 to 0.81 nM |  |  | 
